Data published in US9040523B2, “Antifungal 5,6-dihydro-4H-pyrrolo[1,2-α][1,4]-benzodiazepines and 6H-pyrrolo[1,2-α][1,4]benzodiazepines substituted with benzene derivatives” (JANSSEN PHARMACEUTICA NV, priority 2010, dated 2015).

Legend:
[1] = Liver metabolic stability assay, hLM; type: in vitro ADME, human; settings: human liver microsomes, 1 mg protein/ml, 5 μM test compound, 15 min, 37 °C
[2] = tested on: Trichophyton mentagrophytes B70554; experiment: Antifungal activity in vitro (resazurin susceptibility screen), Inf. G; type: cell-based; settings: Trichophyton mentagrophytes, B70554, Trichophyton mentagrophytes B70554; 27 °C, 7 days, resa time 24 hours; read-out: Inf. G pIC50 (converted)
How it was run: (§1)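 Each well was inoculated with 10^3 cfu of fungus onto dried, pre-spotted compound serial dilutions in RPMI-MOPS medium, with fungal growth read by resazurin. Growth was referenced to drug-free culture (100%) and medium-only (0%) controls on each plate.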

[3] = tested on: Trichophyton rubrum B68183; experiment: Antifungal activity in vitro (resazurin susceptibility screen), Inf. C; type: cell-based; settings: Trichophyton rubrum B68183; 27 °C, 7 days, resa time 24 hours; read-out: Inf. C pIC50 (converted)
How it was run: (§2)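 Serially diluted compounds were pre-spotted into 96-well U-bottom plates, then each well received 10^3 cfu of cryopreserved fungal inoculum in 200 μl RPMI-MOPS medium. Every plate carried a compound-free growth control (100%) and a medium-only control (0%), with resazurin as read-out.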

[4] = molecular target: CYP2D6 (Homo sapiens, UniProt P10635); experiment: Cytochrome P450 inhibition, Protocol A, cDNA expressed proteins, fluorogenic substrate; type: in vitro ADME; settings: % inhibition at 10 μM; substrate AMMC; cDNA expressed protein
Chain of CYP2D6 (P10635 whole entry): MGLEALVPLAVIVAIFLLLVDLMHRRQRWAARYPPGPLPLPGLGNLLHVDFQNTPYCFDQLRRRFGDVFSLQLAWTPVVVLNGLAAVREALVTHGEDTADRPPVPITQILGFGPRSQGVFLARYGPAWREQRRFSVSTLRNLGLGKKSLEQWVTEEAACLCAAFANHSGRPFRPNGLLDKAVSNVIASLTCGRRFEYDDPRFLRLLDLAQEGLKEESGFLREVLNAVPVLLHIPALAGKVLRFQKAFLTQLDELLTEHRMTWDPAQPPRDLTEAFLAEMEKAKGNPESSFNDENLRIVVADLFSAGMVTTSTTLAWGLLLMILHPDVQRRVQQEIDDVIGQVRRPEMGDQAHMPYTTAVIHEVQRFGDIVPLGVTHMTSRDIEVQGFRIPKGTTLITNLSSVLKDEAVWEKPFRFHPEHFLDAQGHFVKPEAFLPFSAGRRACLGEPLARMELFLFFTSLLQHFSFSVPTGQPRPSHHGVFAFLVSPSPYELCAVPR
How it was run: (§3)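 cDNA-expressed enzymes with fluorogenic substrates (three separate ones for CYP3A4) in sodium/potassium buffer pH 7.4 plus NADPH-generating system. Compounds at 1 nM to 10 μM final, prewarmed 5 min at 37° C, reaction started with NADP+, stopped, then fluorescence measured.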

[5] = molecular target: CYP2C9 (Homo sapiens, UniProt P11712); experiment: as above; type: in vitro ADME; settings: % inhibition at 10 μM; substrate MFC; cDNA expressed protein
Chain of CYP2C9 (P11712 whole entry): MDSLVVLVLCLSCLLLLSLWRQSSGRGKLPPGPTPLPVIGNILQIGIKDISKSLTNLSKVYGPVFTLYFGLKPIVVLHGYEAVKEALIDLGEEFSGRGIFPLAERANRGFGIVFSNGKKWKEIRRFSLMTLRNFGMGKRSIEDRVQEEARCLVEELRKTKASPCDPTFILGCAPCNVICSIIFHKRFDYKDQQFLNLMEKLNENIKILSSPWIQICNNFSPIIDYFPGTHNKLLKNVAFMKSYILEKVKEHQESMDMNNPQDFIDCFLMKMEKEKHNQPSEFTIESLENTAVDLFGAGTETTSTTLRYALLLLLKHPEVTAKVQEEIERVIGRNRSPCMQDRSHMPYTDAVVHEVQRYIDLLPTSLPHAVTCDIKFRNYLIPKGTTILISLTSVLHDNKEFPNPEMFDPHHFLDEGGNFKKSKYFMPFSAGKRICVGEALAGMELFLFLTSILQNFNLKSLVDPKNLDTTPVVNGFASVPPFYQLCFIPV
How it was run: as §3

[6] = molecular target: T1, CYP1A2 (Homo sapiens, UniProt P05177); experiment: as above; type: in vitro ADME; settings: % inhibition at 10 μM; substrate CEC; cDNA expressed protein
T1 sequence (P05177 1-516): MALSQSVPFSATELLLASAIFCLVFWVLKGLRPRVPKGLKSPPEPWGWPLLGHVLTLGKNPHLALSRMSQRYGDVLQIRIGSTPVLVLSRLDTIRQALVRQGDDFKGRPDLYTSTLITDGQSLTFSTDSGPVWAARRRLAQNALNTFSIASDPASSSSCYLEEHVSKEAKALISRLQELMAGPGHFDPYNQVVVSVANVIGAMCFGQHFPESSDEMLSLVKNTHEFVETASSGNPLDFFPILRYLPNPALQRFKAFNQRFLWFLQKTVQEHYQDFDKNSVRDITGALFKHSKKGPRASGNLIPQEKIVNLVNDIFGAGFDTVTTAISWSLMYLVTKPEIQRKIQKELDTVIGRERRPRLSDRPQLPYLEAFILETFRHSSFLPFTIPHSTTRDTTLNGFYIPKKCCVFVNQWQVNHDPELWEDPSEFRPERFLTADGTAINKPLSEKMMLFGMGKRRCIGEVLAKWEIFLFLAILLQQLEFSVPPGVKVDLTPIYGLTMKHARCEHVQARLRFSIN
How it was run: as §3

[7] = tested on: Microsporum canis B68128; experiment: Antifungal activity in vitro (resazurin susceptibility screen), Inf. B; type: cell-based; settings: Microsporum canis, B68128, Microsporum canis B68128; 27 °C, 9 days, resa time 24 hours; read-out: Inf. B pIC50 (converted)
How it was run: as §1

[8] = molecular target: CYP3A4 (Homo sapiens, UniProt P08684); experiment: Cytochrome P450 inhibition, Protocol A, cDNA expressed proteins, fluorogenic substrates; type: in vitro ADME; settings: % inhibition at 10 μM, cDNA expressed protein
Chain of CYP3A4 (P08684 whole entry): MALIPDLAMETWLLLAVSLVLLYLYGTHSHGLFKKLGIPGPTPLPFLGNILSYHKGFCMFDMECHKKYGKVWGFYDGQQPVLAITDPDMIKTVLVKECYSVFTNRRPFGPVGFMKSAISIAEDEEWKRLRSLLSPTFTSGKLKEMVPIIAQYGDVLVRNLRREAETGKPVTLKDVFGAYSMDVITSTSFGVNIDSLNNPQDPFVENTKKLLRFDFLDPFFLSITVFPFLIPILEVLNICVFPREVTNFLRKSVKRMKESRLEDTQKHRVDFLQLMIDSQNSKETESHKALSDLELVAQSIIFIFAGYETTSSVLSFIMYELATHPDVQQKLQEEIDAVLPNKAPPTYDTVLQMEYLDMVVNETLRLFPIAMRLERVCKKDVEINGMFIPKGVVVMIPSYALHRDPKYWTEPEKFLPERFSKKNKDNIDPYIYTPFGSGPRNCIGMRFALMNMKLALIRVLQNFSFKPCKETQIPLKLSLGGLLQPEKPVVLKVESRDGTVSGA
How it was run: as §3

[9] = Liver metabolic stability assay, gpLM; type: in vitro ADME, guinea pig; settings: guinea pig microsomes, 1 mg protein/ml, 5 μM test compound, 15 min, 37 °C
Protocol: (§4) Liver preparations (microsomal fractions) were obtained from BD Gentest (San Jose, Calif., US). Metabolic stability was assessed using the following assay conditions. […] The mixture was pre-incubated at 37° C. for 5 min and the enzymatic reaction was started by addition of 5 μM test compound. After 0 (control) and 15 minutes (min), the reactions were terminated by addition of […] (500 μl). The precipitated material was removed by centrifugation at 1200 g for 10 min. The supernatant was analysed by LC-MS/MS on a ThermoFinnigan LCQ Deca XP ion-trap mass spectrometer equipped with an atmospheric pressure chemical ionisation source. Calculation of %-compound remaining was as described by Kantharaj et al. 2003 ((Kantharaj E., Tuytelaars A, Proost P E A, Ongel Z, van […] (2003). Simultaneous measurement of drug metabolic stability and identification of metabolites using ion-trap mass spectrometry.

[10] = tested on: Candida parapsilosis B66126; experiment: Antifungal activity in vitro (resazurin susceptibility screen), Inf. D; type: cell-based; settings: Lodderomyces parapsilosis; Candida parapsilosis B66126; 37 °C, 24 hours, resa time 4 hours; read-out: Inf. D pIC50 (converted)
How it was run: as §1

[11] = tested on: Cryptococcus neoformans B66663; experiment: Antifungal activity in vitro (resazurin susceptibility screen), Inf. F; type: cell-based; settings: Cryptococcus neoformans, B66663, Cryptococcus neoformans B66663; 37 °C, 24 hours, resa time 4 hours; read-out: Inf. F pIC50 (converted)
How it was run: as §2

[12] = tested on: Aspergillus fumigatus B42928; experiment: Antifungal activity in vitro (resazurin susceptibility screen), Inf. E; type: cell-based; settings: Aspergillus fumigatus B42928; 27 °C, 48 hours, resa time 17 hours; read-out: Inf. E pIC50 (converted)
How it was run: as §2

[13] = Liver metabolic stability assay, mLM; type: in vitro ADME; settings: mouse liver microsomes, 1 mg protein/ml, 5 μM test compound, 15 min, 37 °C
Protocol: as §4

[14] = tested on: Sporothrix schenkii B62482; experiment: Antifungal activity in vitro (resazurin susceptibility screen), Inf. A; type: cell-based; settings: Sporothrix, B62482, Sporothrix schenkii B62482; 27 °C, 4 days, resa time 24 hours; highest in-test concentration 64 μM; read-out: Inf. A pIC50 (converted)
How it was run: as §2

[15] = tested on: Rhizomucor miehei IHEM13391; experiment: Antifungal activity in vitro (resazurin susceptibility screen), Inf. K; type: cell-based; settings: 37 °C, 48 hours, resa time 17 hours, read-out: Inf. K pIC50 (converted)
Protocol: (§5) The standard susceptibility screen was performed in 96-well plates (U-bottom, Greiner Bio-One). […] These serial dilutions (10 n1) were then spotted onto test-plates that could be stored in the dark at 4° C. for a maximum period of 2 weeks. […] The different fungal species/isolates (Table 3a) were cryopreserved and 1/1000 diluted in medium just prior to use. A standard inoculum of 200 μl containing 10^3 colony-forming unit (cfu) was then added to each well. A positive control (100% growth=fungal culture without antifungal) and a negative control (0% growth ═RPMI-MOPS medium) were included on each plate. […] [table]

[16] = tested on: Mucor circinelloides IHEM21105; experiment: Antifungal activity in vitro (resazurin susceptibility screen), Inf. L; type: cell-based; settings: 27 °C, 48 hours, resa time 17 hours, read-out: Inf. L pIC50 (converted)
Protocol: as §5

[17] = tested on: Rhizopus oryzae IHEM5223; experiment: Antifungal activity in vitro (resazurin susceptibility screen), Inf. J; type: cell-based; settings: Rhizopus arrhizus, 37 °C, 24 hours, resa time 6 hours, read-out: Inf. J pIC50 (converted)
Protocol: as §5

[18] = tested on: Scedosporium prolificans IHEM21157; experiment: Antifungal activity in vitro (resazurin susceptibility screen), Inf. I; type: cell-based; settings: Lomentospora prolificans, 37 °C, 48 hours, resa time 17 hours, read-out: Inf. I pIC50 (converted)
Protocol: as §5

[19] = tested on: Scedosporium apiospermum IHEM3817; experiment: Antifungal activity in vitro (resazurin susceptibility screen), Inf. H; type: cell-based; settings: 37 °C, 48 hours, resa time 17 hours, read-out: Inf. H pIC50 (converted)
Protocol: as §5

[20] = molecular target: CYP3A4/5 (Homo sapiens, UniProt P08684); experiment: in vitro; settings: liver microsomes, pH 7.4, probe midazolam (2 microM)
Chain of CYP3A4/5 (P08684 2-503): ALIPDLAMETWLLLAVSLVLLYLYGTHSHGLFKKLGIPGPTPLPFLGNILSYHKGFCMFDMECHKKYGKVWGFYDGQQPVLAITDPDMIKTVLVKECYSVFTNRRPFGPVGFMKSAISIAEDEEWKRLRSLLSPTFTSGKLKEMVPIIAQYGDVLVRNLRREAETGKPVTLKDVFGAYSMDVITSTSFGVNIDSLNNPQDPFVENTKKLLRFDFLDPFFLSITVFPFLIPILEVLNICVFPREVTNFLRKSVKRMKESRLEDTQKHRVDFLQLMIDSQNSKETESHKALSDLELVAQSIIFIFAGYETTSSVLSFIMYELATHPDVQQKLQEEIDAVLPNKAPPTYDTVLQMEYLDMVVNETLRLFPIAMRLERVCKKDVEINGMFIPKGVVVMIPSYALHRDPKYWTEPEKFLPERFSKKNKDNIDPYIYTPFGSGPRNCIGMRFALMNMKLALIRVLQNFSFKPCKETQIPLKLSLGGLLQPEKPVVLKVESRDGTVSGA
Protocol: (§6) Probe substrates and final assay concentrations with the appropriate internal standard are outlined in Table 6a.
After a 10 min pre-incubation at 37° C., the reaction was started with addition of NADPH at a final concentration of 1.0 mM. […] The samples are centrifuged for 10 min at 4° C. at 4000 rpm and 60 microliters supernatant is diluted with 180 microliters water. Each sample is injected onto a UPLC/MS system for the simultaneous measurement of the probe substrate metabolites and their associated deuterated internal standards.
(§7) Percentage inhibition data are plotted against the Log transformed test compound concentration and after curve fitting the IC50-value is determined.

[21] = molecular target: T2, Cytochrome P450 1A2 (Homo sapiens, UniProt P05177); experiment: Human liver microsomal cytochrome P450 cocktail inhibition assay, Protocol C; settings: human liver microsomes 0.2 mg/ml; probe phenacetin 80 microM
T2 sequence (P05177 1-516): T1 sequence (P05177 1-516)
Protocol: as §6
(§8) Assays were performed in 0.1 M phosphate buffer (pH 7.4), containing 0.2 mg/ml human liver microsomes (BD Gentest) and a probe substrate mix consisting of: phenacetin, tolbutamide, S-mephenyloin, dextromethorphan, amodiaquine and midazolam (Table 6a) and a range of test compound concentrations (0 to 30 micromolar) in a total volume of 100 microliters. After a 10 min pre-incubation at 37° C., the reaction was started with addition of NADPH at a final concentration of 1.0 mM. […] The samples are centrifuged for 10 min at 4° C. at 4000 rpm and 60 microliters supernatant is diluted with 180 microliters water. Each sample is injected onto a UPLC/MS system for the simultaneous measurement of the probe substrate metabolites and their associated deuterated internal standards. Percentage inhibition is calculated according to: %-inhibition=(1−Ri/R)*100, whereby Ri and R are the metabolite to internal standard peak area ratios in the presence and absence of inhibitor respectively.
as §7

[22] = molecular target: Cytochrome P450 2C9 (Homo sapiens, UniProt P11712); experiment: as above; settings: 2C9 Tolbut pIC50, human liver microsomes 0.2 mg/ml; probe tolbutamide 100 microM
Chain of Cytochrome P450 2C9 (P11712 whole entry): as the sequence (P11712 whole entry) above
Protocol: as §6, §8, §7

[23] = molecular target: Cytochrome P450 2C19 (Homo sapiens, UniProt P33261); experiment: as above; settings: 2C19_S-Meph pIC50, human liver microsomes 0.2 mg/ml; probe S-mephenytoin 30 microM
Chain of Cytochrome P450 2C19 (P33261 whole entry): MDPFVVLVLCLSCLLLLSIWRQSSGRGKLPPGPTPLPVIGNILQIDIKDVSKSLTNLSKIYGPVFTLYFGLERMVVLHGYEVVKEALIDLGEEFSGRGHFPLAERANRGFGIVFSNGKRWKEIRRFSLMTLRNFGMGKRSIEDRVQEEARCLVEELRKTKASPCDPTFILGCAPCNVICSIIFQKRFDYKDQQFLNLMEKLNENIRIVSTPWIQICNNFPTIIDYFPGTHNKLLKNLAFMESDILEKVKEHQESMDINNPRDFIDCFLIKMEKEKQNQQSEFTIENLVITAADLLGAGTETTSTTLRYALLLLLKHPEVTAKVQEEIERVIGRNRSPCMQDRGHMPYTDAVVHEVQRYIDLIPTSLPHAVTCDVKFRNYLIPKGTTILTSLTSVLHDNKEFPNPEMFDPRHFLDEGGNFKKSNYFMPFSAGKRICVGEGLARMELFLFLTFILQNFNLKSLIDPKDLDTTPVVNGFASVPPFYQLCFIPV
Protocol: as §6, §8, §7

[24] = molecular target: Cytochrome P450 2D6 (Homo sapiens, UniProt P10635); experiment: as above; settings: 2D6_Dextro pIC50, human liver microsomes 0.2 mg/ml; probe dextromethorphan 3 microM
Chain of Cytochrome P450 2D6 (P10635 whole entry): as the sequence (P10635 whole entry) above
Protocol: as §6, §8, §7

## CC(=O)c1ccc(C2=NCc3cc(Cl)cc(Cl)c3-n3cccc32)cc1 [Compound 26, 1-[4-(8,10-dichloro-6H-pyrrolo[1,2-a][1,4]benzodiazepin-4-yl)phenyl]-ethanone]
[1]
  %-compound metabolised_Met_hLM: 19%
[2]
  IC50: 3980 nM
[3]
  IC50: 79.4 nM
[4]
  hCYP2D6_AMMC_Pct_Inh: 74%
[5]
  hCYP2C9_MFC_Pct_Inh: 69%
[6]
  hCYP1A2_CEC_Pct_Inh: 34%
[7]
  IC50: 631 nM
other
  melting point: 183.6 to 186.7 °C
[8]; substrate BFC
  hCYP3A4_BFC_Pct_Inh: 33%
[8]; substrate BQ
  hCYP3A4_BQ_Pct_Inh: 32%
[8]; substrate DBF
  hCYP3A4_DBF_Pct_Inh: 55%
[9]
  %-compound metabolised Met_gpLM: 44%
[10]
  IC50: > 63100 nM
[11]
  IC50: 10000 nM
[12]
  IC50: 1580 nM
[13]
  %-compound metabolised Met_mLM: 45%
[14]
  IC50: 1260 nM

## CS(=O)(=O)c1ccc(C2=NCc3c(Cl)cccc3-n3cccc32)cc1 [Compound 28, 7-chloro-4-[4-(methylsulfonyl)phenyl]-6H-pyrrolo[1,2-a][1,4]benzodiazepine]
[1]
  %-compound metabolised_Met_hLM: 2%
[2]
  IC50: 2510 nM
[3]
  IC50: 2000 nM
[15]
  IC50: > 63100 nM
[7]
  IC50: 1260 nM
[16]
  IC50: > 63100 nM
other
  melting point: 218.5 to 219.9 °C
[17]
  IC50: > 63100 nM
[18]
  IC50: 7940 nM
[9]
  %-compound metabolised Met_gpLM: 21%
[10]
  IC50: > 63100 nM
[19]
  IC50: > 63100 nM
[11]
  IC50: > 63100 nM
[12]
  IC50: > 63100 nM
[13]
  %-compound metabolised Met_mLM: 41%
[14]
  IC50: > 63100 nM

## Br.CC(=O)c1ccc(C2NCc3c(Cl)cccc3-n3cccc32)cc1 (centres unmarked) [drawing 96]
[20]
  IC50 at 10 min: 5010 nM
[21]
  1A2_Phen pIC50: <5.0
[22]
  IC50: 2510 nM
[23]
  IC50: 1260 nM
[24]
  IC50: 2000 nM
